Results as given in US11072601B2, “μ-opioid receptor agonist and preparation method therefor and use thereof in field of medicine” (SHANGHAI SYNERGY PHARMACEUTICAL SCIENCES CO., LTD., priority 2017, dated 2021).

Experiments:
[1] = target: T1, β-arrestin signaling pathway of MOR (Homo sapiens, UniProt P35372); assay: cell-based; details: PathHunter HEK293 cells, relative to endorphin MAX control
T1 construct: host or cells: HEK293 (PathHunter cell line)

μ opioid receptor (MOR) = target: T2, μ opioid receptor (MOR) (Homo sapiens, UniProt P35372); assay: cell-based; details: HEK293 stably expressing μ opioid receptor, FLIPR calcium
T2 construct: host or cells: HEK293
Procedure: The purpose of the experiment was to test the agonistic effects of the compounds of the present invention on μ opioid receptor (MOR), κ opioid receptor (KOR) and δ opioid receptor (DOR), and to evaluate in vitro activity of the compounds according to the half-maximal effect concentration (EC50).
This test was performed using HEK293 cell lines (the stably expressed cell lines were provided by WuXi AppTec) which stably expressed μ opioid receptor, δ opioid receptor or κ opioid receptor respectively. […] The cells were centrifuged at 1000 rpm for 5 minutes at room temperature to precipitate. The supernatant was sucked out, be careful not to suck out cells. The precipitate was flicked into the loose cells and resuspend in 45 ml DMEM medium. The Vi-CELL XR automatic cell viability detector (BECKMAN COULTER) was used to count the cells, and the cell concentration was adjusted to 10×10^5 cells/ml based on the counting results.
Preparation of probenecid mother solution: 1 ml of FLIPR test solution was added to 77 mg probenecid to prepare a 250 mM solution. The solution was freshly prepared just before use.
The solution was freshly prepared just before use.
The cell plate prepared above was removed from the incubator and 20 ul 2× Fluo-4 Direct™ buffer was added thereto. The final volume in the cell plate was […]. The plate was incubated at 37° C., under 5% CO2 for 50 minutes, and incubated at room temperature for 10 minutes, then was placed into the FLIPR instrument (MD), and the compound plate and pipette box was placed into. The protocol was run on the […] platform, 10 μl of positive drug or the test compound was transfered to the cell plate from the compound plate, and the fluorescent signal was read.
The signal value generated by each well was calculated, and the calculation formula was that: the activity %=(signal value of the test compound−signal value of the solvent)/(signal value of the positive drug−signal value of the solvent).

[2] = target: T3, cAMP pathway of MOR receptor (Homo sapiens, UniProt P35372); assay: cell-based; details: cAMP Hunter HEK293 cells, forskolin-induced cAMP; read-out: EC50 of cAMP levels affected by agonistic effect on MOR
T3 construct: host or cells: HEK293 (cAMP Hunter cell line)
Source text: The purpose of this experiment was to test the agonistic effect of the compounds of the invention on the cAMP pathway of MOR and to evaluate the in vitro activity of the compounds according to EC50.
In this experiment, HitHunter cAMP Assay EFC technology of DiscoverX was used to measure the cAMP level in cells and monitor the functional status of G-protein coupled receptors (GPCRs).
The amount of signal produced was directly proportional to the amount of cAMP in the cell.
The MOR receptor was bound to the inhibitory Gαi protein, so forskolin (for inducing cAMP signal) was used to induce cAMP expression in the experiment, and the inhibitory effect of the compounds on the above induction was measured.
The cAMP Hunter cell line (HEK293, DiscoverX) was removed from the freezer and expanded according to the Cell Standard Operating Procedure (SOP), 20 μL was collected and inoculated into a 384-well microplate and incubated at 37° C. overnight.
The HitHunter cAMP Assay test kit (DiscoverX, 90-0075sm) was used, the kit contained cAMP buffer, cAMP detection solution, and cAMP working solution A.
The formula was used to calculate the percentage of signal activity per well=100%×(1−(average RLU of the test samples−average RLU of the MAX controls)/(average RLU of the solvent controls−average RLU of the MAX controls)). wherein, the MAX control referred to the fluorescence signal value of the endorphin solution, and the solvent control referred to the fluorescence signal value of DMSO. The DiscoveRx CBIS data analysis workstation (ChemInnovation, CA) was used to perform statistical analysis of the percentage of signal activity and the concentration of the compounds by the agonist formula (comes with the software, universal) to calculate the EC50 value.

SD rats = assay: Respiratory depression in rats, arterial blood gas PCO2; assay type: in vivo
Source text: 8-week-old male SD rats weighing 200 g-300 g were used as experimental animals to determine the effect of the compound of Example H05, the compound of Example H08, the compound of Example H10, the compound of Example H16, the compound of Example H17, the compound of Example H18, the compound of Example H21, and the compound of Example H24 on the partial pressure of blood in rats after intravenous administration. The effects of the compounds of the invention on respiratory depression were investigated.
After the rats were acclimatized to the experimental environment for 3 days, each animal was anesthetized with sodium pentobarbital (50-60 mg/kg, ip), and then the right common carotid artery was isolated and the unilateral carotid artery tube-bury surgery was performed (PE60, ID*OD*length as 0.76 mm*1.22 mm*20 cm, buried into the artery 1 cm deep, and the tube was filled with heparin sodium tube sealing solution).

T1 sequence (P35372 whole entry): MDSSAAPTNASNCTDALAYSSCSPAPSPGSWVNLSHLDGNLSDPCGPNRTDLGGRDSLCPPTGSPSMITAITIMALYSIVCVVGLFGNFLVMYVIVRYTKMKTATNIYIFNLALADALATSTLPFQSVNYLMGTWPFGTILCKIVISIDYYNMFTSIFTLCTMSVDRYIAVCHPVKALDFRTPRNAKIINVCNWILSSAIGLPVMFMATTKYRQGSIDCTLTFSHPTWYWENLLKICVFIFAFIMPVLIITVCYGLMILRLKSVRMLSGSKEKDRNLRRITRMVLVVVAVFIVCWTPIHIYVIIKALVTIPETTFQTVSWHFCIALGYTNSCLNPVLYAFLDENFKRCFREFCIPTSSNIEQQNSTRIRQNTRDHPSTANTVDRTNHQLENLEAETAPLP
T2 sequence (P35372 whole entry, species assumed): as the sequence (P35372 whole entry) above
T3 sequence (P35372 whole entry): as above

SMILES	Emax [1]	EC50 (μ opioid receptor (MOR))	EC50 [2]	PCO2, 5 min before administration (SD rats; arterial blood, before administration)	PCO2, 5 min after administration (SD rats; intravenous single dose 0.3 mg/kg (morphine 24 mg/kg), 5 min)	PCO2, 30 min after administration (SD rats; intravenous single dose 0.3 mg/kg (morphine 24 mg/kg), 30 min)	PCO2, 60 min after administration (SD rats; intravenous single dose 0.3 mg/kg (morphine 24 mg/kg), 60 min)	PCO2, 120 min after administration (SD rats; intravenous single dose 0.3 mg/kg (morphine 24 mg/kg), 120 min)
Cc1ccc(CNCCC2(c3ccccn3)CCOC3(CCCC3)C2)c(OC(F)(F)F)c1 (centres unmarked) [Example H12, (4-methyl-2-trifluoromethoxybenzyl)-[2-(9-(pyridin-2-yl)-6-oxaspiro[4.5]decan-9-yl)ethyl]amine]	32.2%	2.04 nM	5.51 nM	–	–	–	–	–
COc1ccsc1CNC(C)CC1(c2ccccn2)CCOC2(CCCC2)C1 (centres unmarked) [Example H27]	3.32%	4.01 nM	12 nM	–	–	–	–	–
FC(F)(F)c1ccc2c(c1)CN(CCC1(c3ccccn3)CCOC3(CCCC3)C1)CC2 (centres unmarked) [Example H19, 2-[2-(9-(pyridin-2-yl)-6-oxaspiro[4.5]decan-9-yl)ethyl]-7-trifluoromethyl-1,2,3,4-tetrahydroisoquinoline]	1.12%	5.43 nM	18.6 nM	–	–	–	–	–
CN1CC[C@]23c4c5ccc(O)c4O[C@H]2[C@@H](O)C=C[C@H]3[C@H]1C5 [morphine, reference compound]	–	–	–	36.41 ± 0.98 mmHg	37.26 ± 1.18 mmHg	40.94 ± 2.78 mmHg	58.63 ± 3.53 mmHg	56.9 ± 4.05 mmHg
Fc1cnc(C2(CCNCc3ccccc3OC(F)(F)F)CCOC3(CCCC3)C2)c(Cl)c1 (centres unmarked) [Example H09, (2-trifluoromethoxybenzyl)-[2-(9-(3-chloro-5-fluoropyridin-2-yl)-6-oxaspiro[4.5]decan-9-yl)ethyl]amine]	3.28%	4.12 nM	8.45 nM	–	–	–	–	–
FC(F)(F)Oc1c(Br)cccc1CNCCC1(c2ccccn2)CCOC2(CCCC2)C1 (centres unmarked) [Example H28, (3-bromo-2-trifluoromethoxybenzyl)-[2-(9-pyridin-2-yl-6-oxa-spiro[4.5]decan-9-yl)-ethyl]-amine]	6.26%	6.35 nM	14.2 nM	–	–	–	–	–
CNc1ccccc1CNCCC1(c2ccccn2)CCOC2(CCCC2)C1 (centres unmarked) [Example H03]	3.19%	6.47 nM	4.36 nM	–	–	–	–	–
FC(F)(F)Oc1ccccc1CNCCC1(c2ccccn2)CCOC2(CCCC2)C1 (centres unmarked) [Example H22, (2-trifluoromethoxybenzyl)-[2-(9-pyridin-2-yl-6-oxa-spiro[4.5]decan-9-yl) -ethyl]-amine]	2.31%	1.04 nM	11.9 nM	–	–	–	–	–
Fc1ccc(C2(CCNCc3ccccc3OC(F)F)CCOC3(CCCC3)C2)nc1 (centres unmarked) [Example H29, {2-[9-(5-fluoro-pyridin-2-yl) -6-oxa-spiro[4.5]decan-9-yl]-ethyl}-(2-(difluoromethoxy)-benzyl) -amine]	7.07%	6.09 nM	10.4 nM	–	–	–	–	–
Fc1ccc(C2(CCNCc3sccc3OC(F)F)CCOC3(CCCC3)C2)nc1 (centres unmarked) [Example H33, {2-[9-(5-fluoro-pyridin-2-yl)-6-oxa-spiro[4.5]decan-9-yl]-ethyl}-((3-difluoromethoxythiophen-2-yl) -methyl)-amine]	8.69%	5.25 nM	12 nM	–	–	–	–	–
Fc1ccc(C2(CCNCc3sccc3Cl)CCOC3(CCCC3)C2)nc1 (centres unmarked) [Example H30, {2-[9-(5-fluoro-pyridin-2-yl)-6-oxa-spiro[4.5]decan-9-yl]-ethyl}-((3-chlorothiophen-2-yl)-methyl)-amine]	2.91%	5.62 nM	17.4 nM	–	–	–	–	–
COc1ccsc1CNCC(C)C1(c2ccccn2)CCOC2(CCCC2)C1 (centres unmarked) [Example H26]	22.6%	1.76 nM	6.95 nM	–	–	–	–	–
Cc1c(Cl)cccc1CNCCC1(c2ccc(F)cn2)CCOC2(CCCC2)C1 (centres unmarked) [Example H32, {2-[9-(5-fluoro-pyridin-2-yl)-6-oxa-spiro[4.5]decan-9-yl]-ethyl}-(3-chloro-2-methyl-benzyl)-amine]	11.7%	7.35 nM	13.5 nM	–	–	–	–	–
COc1ccc2c(c1)CN(CCC1(c3ccccn3)CCOC3(CCCC3)C1)CC2 (centres unmarked) [Example H20, 7-methoxy-2-[2-(9-pyridin-2-yl-6-oxa-spiro[4.5]decan-9-yl)-ethyl]-1,2,3,4-tetrahydroisoquinoline]	2.12%	3.53 nM	19.9 nM	–	–	–	–	–
COc1[nH]ncc1CNCCC1(c2ccccn2)CCOC2(CCCC2)C1 (centres unmarked) [Example H25, [(5-methoxy-1H-pyrazol-4-yl)methyl]-[2-(9-(pyridin-2-yl)-6-oxaspiro[4.5]decan-9-yl)ethyl] amine]	3.2%	2.02 nM	12.8 nM	–	–	–	–	–
Oc1ccc(CNCCC2(c3ccccn3)CCOC3(CCCC3)C2)c(OC(F)(F)F)c1 (centres unmarked) [Example H15, 4-{[2-(9-(pyridin-2-yl)-6-oxaspiro[4.5]decan-9-yl)ethylamine]methyl}-3-trifluoromethoxyphenol]	15.8%	3.32 nM	4.28 nM	–	–	–	–	–
Cc1ccc(CNCCC2(c3ccc(F)cn3)CCOC3(CCCC3)C2)cc1C (centres unmarked) [Example H31, {2-[9-(5-fluoro-pyridin-2-yl)-6-oxa-spiro[4.5]decan-9-yl]-ethyl}-(3,4-dimethyl-benzyl)-amine]	5.06%	3.83 nM	8.73 nM	–	–	–	–	–
FC(F)(F)Oc1ccc(CNCCC2(c3ccccn3)CCOC3(CCCC3)C2)cc1 (centres unmarked) [Example H06, (4-trifluoromethoxybenzyl)-[2-(9-(pyridin-2-yl)-6-oxaspiro[4.5]decan-9-yl)ethyl]amine]	0.66%	6.1 nM	11.8 nM	–	–	–	–	–
c1ccc(C2(CCN3CCc4ccsc4C3)CCOC3(CCCC3)C2)nc1 (centres unmarked) [Example H23, 6-[2-(9-pyridin-2-yl-6-oxa-spiro[4.5]decan-9-yl)-ethyl]-4,5,6,7-tetrahydro-thieno[2,3-c]pyridine]	2.2%	4.08 nM	9.73 nM	–	–	–	–	–
FC(F)(F)Oc1cc(Br)ccc1CNCCC1(c2ccccn2)CCOC2(CCCC2)C1 (centres unmarked) [Example H11, (4-bromo-2-trifluoromethoxybenzyl)-[2-(9-(pyridin-2-yl)-6-oxaspiro[4.5]decan-9-yl)ethyl]amine]	2.28%	2.08 nM	7.31 nM	–	–	–	–	–
N#Cc1cccc(CNCCC2(c3ccccn3)CCOC3(CCCC3)C2)c1OC(F)(F)F (centres unmarked) [Example H13]	3.41%	5.16 nM	9.43 nM	–	–	–	–	–
FC(F)(F)c1ccsc1CNCCC1(c2ccccn2)CCOC2(CCCC2)C1 (centres unmarked) [Example H14, ((3-trifluoromethylthiophen-2-yl)methyl)-[2-(9-(pyridin-2-yl)-6-oxaspiro[4.5]decan-9-yl)ethyl]a mine]	1.82%	2.1 nM	15.9 nM	–	–	–	–	–
